Results as given in publication PMC11246995 (Frontiers in Molecular Biosciences, 2024).
Read-outs that look alike come from different tables or passages of the source.

Test: MALDI quantitative MSI (on-tissue qMSI) of rotenone in kidney tissue sections after a single oral dose
Type: in vivo
Conditions: rat, single oral 2 mg/kg; for concentration at 24 h: kidney, po, 2 mg/kg
Protocol: Rats were sacrificed 24 h after drug administration, and the kidney and liver organs were immediately removed, flash-frozen with liquid nitrogen, and stored at −80°C in a freezer for long-term storage. The administration and harvesting of organs were conducted by the Pharmalytics Corporation, accredited by the Food and Drug Administration (FDA, Philippines) for bioavailability and bioequivalence research. The animal study was reviewed and approved by the Institutional Animal Care and Use Committee (IACUC) Esteleydes Animal Laboratory and Research Facility and by the Bureau of Animal Industry—Animal Health and Welfare Division in the Philippines.
Agarose-embedded kidney and liver organs were cut longitudinally at 5 µm thickness at −20°C using a cryostat (Leica CM 1950; Leica Biosystems, Germany), and thaw-mounted onto clean glass slides. The agarose-embedded kidney or liver was trimmed up to 500 µm to remove the agarose covering a portion of the organ. Subsequently, seven layers from the outer portion towards the middle were identified with a 100 µm distance between each layer. Representative cryosections were obtained from each identified layer of the untreated and drug-treated rat kidney. The agarose surrounding the kidney or liver cryosectioned tissue was manually removed before mounting onto a glass slide. Prior to matrix coating, the glass slides mounted with thin kidney cryosections were placed in a box and kept in a vacuum desiccator cabinet overnight ([Costa et al., 2013]; [Marques et al., 2014]; [Dalisay et al., 2015]; [Suarez et al., 2023]).
Matrix solution was applied to evenly coat the entire tissue surface using a HTX M5 Sprayer (HTX Technologies, LLC, Carrboro, NC, United States). The parameter settings were optimized to avoid metabolite delocalization and compromised spatial integrity. The kidney sections were sprayed with a matrix solution of 2,5-dihydroxybenzoic acid (DHB) (Acros Organics, New Jersey, United States) at a concentration of 40 mg/mL in MeOH/H2O (1:1 v/v). Matrix solution was homogeneously applied for 6 passes in a criss-cross (CC) pattern with a nozzle temperature of 80°C, 1 mm track spacing, 1,250 mm/min nozzle speed, and 10 psi nitrogen pressure.
This method utilized an untreated kidney tissue sample which was sectioned and mounted on a clean glass slide. An on-tissue calibration curve method for qMSI was followed ([Kibbe and Muddiman, 2024]). […] Linear regression analysis was applied and inspected to confirm linearity. The untreated tissue was spotted with calibrants, allowed to dry, and coated with matrix (DHB 40 mg/mL in MeOH:H2O, 1:1 v/v). MALDI MSI data were acquired in 100 μm pixel resolution using MALDI SYNAPT XS (Waters Corporation, Manchester, United Kingdom) in positive mode. The experiment was performed with three replicates per calibrant in three independent trials. In order to address variations that may occur during data acquisition for qMSI, the ion signals were normalized to the total ion current (TIC). The intensities obtained for each concentration were plotted and approximated using the least-squares method. The limits of detection (LOD) and quantification (LOQ) were calculated by averaging the calibration curves, using signal-to-noise ratios (S/N) of 3:1 for LOD and 10:1 for LOQ. The validity of these limits was confirmed by applying serially diluted rotenone onto the tissue. In cases where the blank response has a standard deviation (SD) of zero, the SD of the lowest non-zero concentration was utilized. The SD value was divided by the slope of the calibration curve and multiplied by 3.3. The LOD was calculated using the formula LOD=3.3 x SDlowest non−zero concentration/slope of the calibration curve
To calculate the LOD and LOQ values in kidney tissue (pg/ng), the values were divided by the renal tissue density (ng/µL). […]

## C=C(C)[C@H]1Cc2c(ccc3c2O[C@@H]2COc4cc(OC)c(OC)cc4[C@@H]2C3=O)O1 [rotenone, Rotenone]
AVERAGE ± SD of 7 kidney tissue sections, read-out: Concentration
  concentration at 24 h: 6200 ± 3800 ng/mL
AVERAGE ± SD of 7 kidney tissue sections, read-out: Relative concentration per tissue section
  concentration at 24 h: 5860 ng/g
Kidney Tissue 1 (layer 1), read-out: Concentration
  concentration at 24 h: 3600 ng/mL
Kidney Tissue 1 (layer 1), read-out: Relative concentration per tissue section
  concentration at 24 h: 1650 ng/g
Kidney Tissue 2 (layer 2), read-out: Concentration
  concentration at 24 h: 2000 ng/mL
Kidney Tissue 2 (layer 2), read-out: Relative concentration per tissue section
  concentration at 24 h: 1100 ng/g
Kidney Tissue 3 (layer 3), read-out: Concentration
  concentration at 24 h: 2600 ng/mL
Kidney Tissue 3 (layer 3), read-out: Relative concentration per tissue section
  concentration at 24 h: 1910 ng/g
Kidney Tissue 4 (layer 4), read-out: Concentration
  concentration at 24 h: 7200 ng/mL
Kidney Tissue 4 (layer 4), read-out: Relative concentration per tissue section
  concentration at 24 h: 5950 ng/g
Kidney Tissue 5 (layer 5), read-out: Concentration
  concentration at 24 h: 7000 ng/mL
Kidney Tissue 5 (layer 5), read-out: Relative concentration per tissue section
  concentration at 24 h: 6420 ng/g
Kidney Tissue 6 (layer 6), read-out: Concentration
  concentration at 24 h: 8000 ng/mL
Kidney Tissue 6 (layer 6), read-out: Relative concentration per tissue section
  concentration at 24 h: 9210 ng/g
Kidney Tissue 7 (layer 7), read-out: Concentration
  concentration at 24 h: 12800 ng/mL
Kidney Tissue 7 (layer 7), read-out: Relative concentration per tissue section
  concentration at 24 h: 14700 ng/g
24 h, AVERAGE ± SD of 7 kidney tissue sections
  Normalized Mass intensity by TIC: 0.0042 ± 0.0019
24 h, Kidney Tissue 1 (layer 1)
  Normalized Mass intensity by TIC: 0.0030
24 h, Kidney Tissue 2 (layer 2)
  Normalized Mass intensity by TIC: 0.0022
24 h, Kidney Tissue 3 (layer 3)
  Normalized Mass intensity by TIC: 0.0025
24 h, Kidney Tissue 4 (layer 4)
  Normalized Mass intensity by TIC: 0.0048
24 h, Kidney Tissue 5 (layer 5)
  Normalized Mass intensity by TIC: 0.0047
24 h, Kidney Tissue 6 (layer 6)
  Normalized Mass intensity by TIC: 0.0052
24 h, Kidney Tissue 7 (layer 7)
  Normalized Mass intensity by TIC: 0.0076
24 h, range over seven kidney layers
  Detected amount of rotenone drug in picograms per nanogram of tissue mass: 0.0011 to 0.0147 pg/ng
